Consider 47 compounds from US11866433B2, “Diarylthiohydantoin compound as androgen receptor antagonist” (CHIA TAI TIANQING PHARMACEUTICAL GROUP CO., LTD., priority 2017, dated 2024).

Where only a bound is given, the exact number is not on record here.

In the experiment the target is T1, androgen receptor (AR) (Homo sapiens, UniProt P10275).
T1 sequence (P10275 1-920): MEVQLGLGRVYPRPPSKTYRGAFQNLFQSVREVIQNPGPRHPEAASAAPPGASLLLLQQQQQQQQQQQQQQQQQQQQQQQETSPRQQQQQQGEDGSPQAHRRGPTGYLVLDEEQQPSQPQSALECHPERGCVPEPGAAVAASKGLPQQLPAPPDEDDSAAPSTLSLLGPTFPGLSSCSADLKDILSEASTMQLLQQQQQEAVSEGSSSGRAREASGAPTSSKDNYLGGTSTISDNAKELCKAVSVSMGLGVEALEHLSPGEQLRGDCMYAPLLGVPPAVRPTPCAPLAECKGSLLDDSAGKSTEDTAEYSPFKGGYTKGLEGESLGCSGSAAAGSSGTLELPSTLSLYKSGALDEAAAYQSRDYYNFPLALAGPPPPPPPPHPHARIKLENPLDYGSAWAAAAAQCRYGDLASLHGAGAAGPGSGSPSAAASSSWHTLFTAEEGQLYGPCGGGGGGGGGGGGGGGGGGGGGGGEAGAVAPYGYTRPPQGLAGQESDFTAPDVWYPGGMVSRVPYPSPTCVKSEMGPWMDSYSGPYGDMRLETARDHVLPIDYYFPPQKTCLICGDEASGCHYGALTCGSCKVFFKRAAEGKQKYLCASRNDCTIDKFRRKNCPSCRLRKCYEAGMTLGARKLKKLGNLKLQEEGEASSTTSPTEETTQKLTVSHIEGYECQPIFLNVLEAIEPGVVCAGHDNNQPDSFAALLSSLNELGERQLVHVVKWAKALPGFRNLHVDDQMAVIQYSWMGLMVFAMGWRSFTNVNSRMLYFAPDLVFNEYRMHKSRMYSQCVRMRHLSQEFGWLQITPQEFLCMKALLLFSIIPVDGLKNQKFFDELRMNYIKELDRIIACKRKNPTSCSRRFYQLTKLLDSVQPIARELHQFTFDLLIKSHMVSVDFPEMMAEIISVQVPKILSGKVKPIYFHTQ
The experiment is described as follows: Antagonism of compounds on nuclear translocation of androgen receptor (PathHunter NHR cell lines). The experiment is classed as cell-based. The note with it: antagonist mode, agonist 6a-Fluorotestosterone 0.06 μM (EC80). Here is the method: Example 75 Test of Antagonism of Compounds on Nuclear Translocation of Androgen Receptor (AR)
1. PathHunter NHR cell lines were recovered and cultured for amplification.
2. The cells were inoculated onto a 384-well plate prior to testing, and incubated at 37° C. The serum for culture was filtered with charcoal-dextran to reduce the hormone level therein.
3. In the detection of the antagonistic function, a compound was added to the cells and incubated for 60 min. The working concentration of the test compound was diluted from 10 μM at a 3-fold concentration gradient, respectively including: […]. Then, an agonist 6a-Fluorotestosterone 0.06 μM (concentration: EC80, i.e., 80% agonistic compound concentration) was added, and the mixture was incubated at 37° C. or at room temperature for 3-16 h.
4. Signal detection: 12.5 μL or 15 μL (50%, v/v) PathHunter detection mixed solution (kit: DiscoverX product catalog number: 93-0001 series) was added, and incubated at room temperature for 1 h. The chemiluminescent signal was read with a PerkinElmer Envision™ instrument.
5. Data analysis: The compound activity was analyzed with CBIS data analysis software (ChemInnovation, CA). The calculation formula of the inhibition percent of the antagonist is as follows: IC50 inhibition ratio (%)=[…]×(1−(average RLU value of the test compound−average RLU value of the blank control group)/(average RLU value of EC80 control group−average RLU value of the blank control group)).
In general, IC50 refers to the concentration at which inhibition is half-maximal. A lower IC50 goes with greater potency in that assay. For `COCc1cc(=O)n2cc(N3C(=S)N(c4ccc(C#N)c(C(F)(F)F)c4)C(=O)C3(C)C)cc(F)c2n1` [Compound 69], the IC50 was 4000 nM.
With `CNC(=O)c1ccc(-n2c(=S)n(-c3ccc(C#N)c(C(F)(F)F)c3)c3nccc(C)c32)cc1F` [Compound 3] the figure was 1400 nM.
In the case of `CCc1cc(=O)n2cc(-n3c(=S)n(-c4ccc(C#N)c(C(F)(F)F)c4)c4nccc(C)c43)cc(F)c2n1` [Compound 66], the IC50 was found to be 7120 nM.
The value for `CCc1cc(=O)n2cc(N3C(=S)N(c4ccc(C#N)c(C(F)(F)F)c4)C(=O)C3(C)C)cc(Cl)c2n1` [Compound 61] was 1450 nM; that for `CCc1nc(-c2cn[nH]c2)c2cc(N3C(=S)N(c4ccc(C#N)c(C(F)(F)F)c4)C(=O)C3(C)C)cc(F)c2n1` [Compound 51] was 640 nM.
With `CC1(C)C(=O)N(c2ccc(C#N)c(C(F)(F)F)c2)C(=S)N1c1cc(F)c2nc(C(F)F)nc(OCCO)c2c1` [Compound 21] the figure was 1890 nM; with `CCc1cc(=O)n2cc(N3C(=S)N(c4cnc(C#N)c(C(F)(F)F)c4)C(=O)C3(C)C)cc(F)c2n1` [Compound 53], 2110 nM; with `CC1(C)C(=O)N(c2ccc(C#N)c(C(F)(F)F)c2)C(=S)N1c1ccc2nc(C(F)F)nc(OCCO)c2c1` [Compound 15], 1120 nM.
For the compound `CCc1cc(=O)n2cc(N3C(=S)N(c4ccc(C#N)c(C(F)(F)F)c4)C(=O)C34CCC4)cc(F)c2n1` [Compound 54], the IC50 amounted to 2500 nM.
Regarding `CCc1nc(OC2COC[C@@H]2O)c2cc(N3C(=S)N(c4ccc(C#N)c(C(F)(F)F)c4)C(=O)C3(C)C)cc(F)c2n1` (some centres unmarked) [Compound 46], the half-maximal inhibitory concentration (IC50) stood at 3080 nM.
With `CCc1nc(OCC2(O)CC2)c2cc(N3C(=S)N(c4ccc(C#N)c(C(F)(F)F)c4)C(=O)C3(C)C)cc(F)c2n1` [Compound 36] the figure was 5650 nM.
As for `CCc1nc(OCCO)c2cc(N3C(=S)N(c4ccc(C#N)c(C(F)(F)F)c4)C(=O)C34CCC4)ccc2n1` [Compound 17], the IC50 worked out at 650 nM.
The value for `CC1(C)C(=O)N(c2ccc(C#N)c(C(F)(F)F)c2)C(=S)N1c1cc(F)c2nc(C(F)F)cc(=O)n2c1` [Compound 62] was 1690 nM; that for `CC1(C)C(=O)N(c2ccc(C#N)c(C(F)(F)F)c2)C(=S)N1c1cc(F)c2ncnc(OCCO)c2c1` [Compound 13] was 6020 nM.
In turn, `CCc1nc2ccc(N3C(=S)N(c4ccc(C#N)c(C(F)(F)F)c4)C(=O)C3(C)C)cn2c(=O)c1O` [Compound 33] registered an IC50 of 9580 nM.
On to `CCc1nc2c(F)cc(-n3c(=S)n(-c4ccc(C#N)c(C(F)(F)F)c4)c4nccc(C)c43)cc2c(=O)[nH]1` [Compound 45], for which the IC50 was 2640 nM.
As to `CCc1nc2ccc(N3C(=S)N(c4ccc(C#N)c(C(F)(F)F)c4)C(=O)C3(C)C)cn2c(=O)c1OC` [Compound 31], the IC50 came out at 3800 nM.
The value for `CCc1nc(OCCO)c2cc(N3C(=S)N(c4ccc(C#N)c(C(F)F)c4)C(=O)C3(C)C)ccc2n1` [Compound 48] was 3670 nM.
With `CCc1nc(OCCCS(C)(=O)=O)c2cc(N3C(=S)N(c4ccc(C#N)c(C(F)(F)F)c4)C(=O)C3(C)C)cc(F)c2n1` [Compound 22] the figure was 2360 nM; with `CCc1nc(-c2cc[nH]n2)c2cc(N3C(=S)N(c4ccc(C#N)c(C(F)(F)F)c4)C(=O)C3(C)C)cc(F)c2n1` [Compound 52], 1230 nM.
The value for `CCc1cc(=O)n2cc(N3C(=S)N(c4ccc(C#N)c(C(F)(F)F)c4)C(=O)C3(C)C)ccc2n1` [Compound 30] was 2540 nM; that for `CC1(C)C(=O)N(c2ccc(C#N)c(C(F)(F)F)c2)C(=S)N1c1ccc2nc(C3CC3)nc(OCCO)c2c1` [Compound 11] was 1140 nM; that for `CCc1nc(OC2CCOCC2)c2cc(N3C(=S)N(c4ccc(C#N)c(C(F)(F)F)c4)C(=O)C3(C)C)cc(F)c2n1` [Compound 19] was 1860 nM.
`CNC(=O)c1ccc(-n2c(=S)n(-c3ccc(C#N)c(C(F)(F)F)c3)c3ncccc32)cc1F` [Compound 2] came in with an IC50 of more than 10000 nM.
With `CC1(C)C(=O)N(c2ccc(C#N)c(C(F)(F)F)c2)C(=S)N1c1ccc2ncnc(OCCO)c2c1` [Compound 12] the figure was 3260 nM; with `CNc1nc(OCCO)c2cc(N3C(=S)N(c4ccc(C#N)c(C(F)(F)F)c4)C(=O)C3(C)C)ccc2n1` [Compound 16], 3910 nM; with `CC1(C)C(=O)N(c2ccc(C#N)c(C(F)(F)F)c2)C(=S)N1c1ccc2c(cnn2C2COCC2O)c1` (centres unmarked) [Compound 7], 4260 nM.
With `CCc1cc(=O)n2cc(N3C(=S)N(c4cnc(C#N)c(Cl)c4)C(=O)C3(C)C)cc(F)c2n1` [Compound 75] the figure was 920 nM; with `COc1cc(=O)n2cc(N3C(=S)N(c4ccc(C#N)c(C(F)(F)F)c4)C(=O)C3(C)C)cc(F)c2n1` [Compound 68], 1910 nM; with `CCN1CCOc2cc(N3C(=O)N(c4ccc(C#N)c(C(F)(F)F)c4)C(=O)C3(C)C)ccc2C1=O` [Compound 4], 2190 nM.
With `COCCOc1cc(=O)n2cc(N3C(=S)N(c4ccc(C#N)c(C(F)(F)F)c4)C(=O)C3(C)C)cc(F)c2n1` [Compound 65] the figure was 2090 nM.
`CC1(C)C(=O)N(c2ccc(C#N)c(C(F)(F)F)c2)C(=S)N1c1ccc2c(=O)n(CC(F)(F)F)cnc2c1` [Compound 5] returned an IC50 of 3650 nM.
The value for `CCOc1cc(=O)n2cc(N3C(=S)N(c4cnc(C#N)c(C(F)(F)F)c4)C(=O)C3(C)C)cc(F)c2n1` [Compound 64] was 2810 nM.
The value for `CCc1nc(OCCN(C)C)c2cc(N3C(=S)N(c4ccc(C#N)c(C(F)(F)F)c4)C(=O)C3(C)C)cc(F)c2n1` [Compound 24] was 3100 nM.
As to `CC1(C)C(=O)N(c2cnc(C#N)c(C(F)(F)F)c2)C(=S)N1c1cc(F)c2nc(C3CC3)nc(OCCO)c2c1` [Compound 23], the IC50 was found to be 1150 nM.
With `CCc1nc2c(F)cc(N3C(=S)N(c4ccc(C#N)c(C(F)(F)F)c4)C(=O)C3(C)C)cn2c(=O)c1OC` [Compound 34] the figure was 3230 nM; with `CCc1nc2c(F)cc(N3C(=S)N(c4ccc(C#N)c(C(F)(F)F)c4)C(=O)C3(C)C)cn2c(=O)c1F` [Compound 47], 2570 nM.
With `CCc1nc(OCC(N)=O)c2cc(N3C(=S)N(c4ccc(C#N)c(C(F)(F)F)c4)C(=O)C3(C)C)cc(F)c2n1` [Compound 32] the figure was 6760 nM; with `CCc1nc2ccc(-n3c(=S)n(-c4ccc(C#N)c(C(F)(F)F)c4)c4nccc(C)c43)cc2c(=O)[nH]1` [Compound 56], 2860 nM.
In turn, `Cc1nc(OCCO)c2cc(N3C(=S)N(c4ccc(C#N)c(C(F)(F)F)c4)C(=O)C3(C)C)ccc2n1` [Compound 9] had an IC50 of 5350 nM.
The value for `CNc1ncnc2cc(N3C(=S)N(c4ccc(C#N)c(C(F)(F)F)c4)C(=O)C3(C)C)ccc12` [Compound 1] was more than 10000 nM; that for `CCc1nc(OC2COC[C@H]2O)c2cc(N3C(=S)N(c4ccc(C#N)c(C(F)(F)F)c4)C(=O)C3(C)C)cc(F)c2n1` (some centres unmarked) [Compound 44] was 3760 nM.
The value for `CCc1nc(OCCO)c2cc(N3C(=S)N(c4ccc(C#N)c(C(F)F)c4)C(=O)C3(C)C)cc(F)c2n1` [Compound 50] was 3450 nM; that for `CCc1nc(OCC(=O)NC)c2cc(N3C(=S)N(c4ccc(C#N)c(C(F)(F)F)c4)C(=O)C3(C)C)cc(F)c2n1` [Compound 28] was 8880 nM.
With `CCc1cc(=O)n2cc(N3C(=S)N(c4ccc(C#N)c(C(F)(F)F)c4)C(=O)C3(C)C)cc(OC)c2n1` [Compound 57] the figure was 5470 nM; with `CCc1cc(=O)n2cc(N3C(=S)N(c4ccc(C#N)c(F)c4)C(=O)C3(C)C)cc(F)c2n1` [Compound 59], 8920 nM; with `CCc1nc2c(F)cc(N3C(=S)N(c4ccc(C#N)c(C(F)(F)F)c4)C(=O)C3(C)C)cn2c(=O)c1OCC(N)=O` [Compound 43], 3500 nM.
